Our source for the IC50 values is patent US10173991B2, “Sulfone amide linked benzothiazole inhibitors of endothelial lipase” (BRISTOL-MYERS SQUIBB COMPANY, priority 2014, dated 2019).

The first experiment deals with Endothelial lipase (EL) (Homo sapiens (Human), UniProt Q9Y5X9). Description: Endothelial lipase (EL) enzymatic assay with fluorescent substrate A10070 in DMPG vesicles. Type of experiment: biochemical.
Endothelial lipase (EL), sequence (Q9Y5X9 21-500): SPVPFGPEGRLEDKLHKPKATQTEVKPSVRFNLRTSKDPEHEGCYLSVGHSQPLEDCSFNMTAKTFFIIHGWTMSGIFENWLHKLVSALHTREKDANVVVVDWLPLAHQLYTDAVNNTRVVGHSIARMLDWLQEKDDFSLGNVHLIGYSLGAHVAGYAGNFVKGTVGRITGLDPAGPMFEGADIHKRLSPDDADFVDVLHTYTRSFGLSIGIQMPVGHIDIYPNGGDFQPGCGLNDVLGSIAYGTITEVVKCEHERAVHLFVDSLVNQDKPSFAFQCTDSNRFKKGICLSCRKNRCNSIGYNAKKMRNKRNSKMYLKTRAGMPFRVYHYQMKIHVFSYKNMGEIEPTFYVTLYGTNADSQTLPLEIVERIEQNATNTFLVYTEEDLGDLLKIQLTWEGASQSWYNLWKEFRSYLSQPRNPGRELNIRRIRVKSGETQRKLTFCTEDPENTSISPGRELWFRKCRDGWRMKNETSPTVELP
Settings: not given
Put shortly:
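Substrate A10070 sits in sonicated DMPG vesicles at 0.11 mole fraction. Lipase and compound preincubated 30 min, 37° C, in HEPES pH 8.0 buffer with CaCl2.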
The term IC50 denotes the concentration needed to halve the response being measured. A low value points to greater potency. For the compound `CN(C)c1ccc(-c2ccc3nc(C(C(=O)NCC(=O)NC4CC4)S(=O)(=O)Cc4ccc(F)cc4)sc3c2)cn1` (centres unmarked) [Example 224, N-[(cyclopropyl-carbamoyl)methyl]-2-{6-[6-(dimethylamino)pyridin-3-yl]-1,3-benzothiazol-2-yl}-2-[(4-fluorophenyl)methanesulfonyl] acetamide], the half-maximal inhibitory concentration (IC50) was 86 nM. Consider `O=C1Cc2ccc(-c3ccc4nc(C(C(=O)NCC(=O)NC5CC5)S(=O)(=O)c5ccc(F)cc5)sc4c3)cc2N1` (centres unmarked) [Example 453, N-[(cyclopropyl-carbamoyl)methyl]-2-(4-fluorobenzene-sulfonyl)-2-[6-(2-oxo-2,3-dihydro-1H-indol-6-yl)-1,3-benzothiazol-2-yl]acetamide], for which 67 nM corresponded to half-maximal inhibition (IC50). The compound `COCCS(=O)(=O)C(C(=O)NCC(=O)NC1CC1)c1nc2cc(F)c(-c3ccc(-c4cc(O)n[nH]4)cc3)cc2s1` (centres unmarked) [Example 415, N-[(cyclopropyl-carbamoyl)methyl]-2-{5-fluoro-6-[4-(3-hydroxy-1H-pyrazol-5-yl)phenyl]-1,3-benzothiazol-2-yl}-2-(2-methoxyethane-sulfonyl)acetamide] had an IC50 of 49 nM. On the same count and under the same terms, the result for `COCCS(=O)(=O)C(C(=O)NCC(=O)NC1CC1)c1nc2cc(F)c(-c3ccc(F)nc3)cc2s1` (centres unmarked) [Example 171, N-[(cyclopropyl-carbamoyl)methyl]-2-[5-fluoro-6-(6-fluoropyridin-3-yl)-1,3-benzothiazol-2-yl]-2-(2-methoxyethane-sulfonyl) acetamide] reads 27 nM; that for `COCCS(=O)(=O)C(C(=O)NCC(=O)NC1CC1)c1nc2cc(F)c(-c3cccc(-n4cccn4)c3)cc2s1` (centres unmarked) [Example 141, N-[(cyclopropyl-carbamoyl)methyl]-2-{5-fluoro-6-[3-(1H-pyrazol-1-yl)phenyl]-1,3-benzothiazol-2-yl}-2-(2-methoxyethane-sulfonyl) acetamide], 2 nM. The same measure, in the same setting: the result for `Cc1nc2cc(-c3cc4sc(C(C(=O)NCC(=O)NC5CC5)S(C)(=O)=O)nc4cc3F)ccc2s1` (centres unmarked) [Example 248, N-[(cyclopropyl-carbamoyl)methyl]-2-[5-fluoro-6-(2-methyl-1,3-benzothiazol-5-yl)-1,3-benzothiazol-2-yl]-2-methanesulfonyl-acetamide] reads 1 nM; that for `CS(=O)(=O)C(C(=O)NCC(=O)NC1CC1)c1nc2cc(F)c(-c3ccc(NC(=O)CCc4ccccc4)cc3)cc2s1` (centres unmarked) [Example 576, N-{4-[2-({[(cyclopropyl-carbamoyl)methyl]carbamoyl} (methanesulfonyl)methyl)-5-fluoro-1,3-benzothiazol-6-yl]phenyl}-3-phenyl-propanamide], 1 nM. In the case of `CN(C)S(=O)(=O)C(C(=O)NCC(=O)NC1CC1)c1nc2c(F)cc(-c3ccc4cnn(C)c4c3)cc2s1` (centres unmarked) [Example 494, N-[(cyclopropyl-carbamoyl)methyl]-2-(dimethyl-sulfamoyl)-2-[4-fluoro-6-(1-methyl-1H-indazol-6-yl)-1,3-benzothiazol-2-yl] acetamide], it took 44 nM to reach half-maximal inhibition (IC50). This IC50 lies about 44-fold higher than the previous one. On to `COCCS(=O)(=O)C(C(=O)NCC(=O)NC1CC1)c1nc2ccc(-c3ccc(C(=O)NCC(C)(C)OC)cc3)cc2s1` (centres unmarked) [Example 566, 4-[2-({[(cyclopropyl-carbamoyl)methyl]carbamoyl}(2-methoxyethane-sulfonyl)methyl)-1,3-benzothiazol-6-yl]-N-(2-methoxy-2-methylpropyl) benzamide], for which the IC50 turned out to be 4 nM. Same read-out and setting: to `COCCS(=O)(=O)C(C(=O)NCC(=O)NC1CC1)c1nc2cc(F)c(-c3ccc4[nH]c(=O)ccc4c3)cc2s1` (centres unmarked) [Example 149, N-[(cyclopropyl-carbamoyl)methyl]-2-[5-fluoro-6-(2-oxo-1,2-dihydroquinolin-6-yl)-1,3-benzothiazol-2-yl]-2-(2-methoxyethane-sulfonyl) acetamide] belongs 2 nM; to `CN(C)C(=O)Nc1ccc(-c2cc3sc(C(C(=O)NCC(=O)NC4CC4)S(=O)(=O)CCC(F)(F)F)nc3cc2F)cc1` (centres unmarked) [Example 6, N-[(cyclopropyl-carbamoyl)methyl]-2-(6-{4-[(dimethyl-carbamoyl)amino]phenyl}-5-fluoro-1,3-benzothiazol-2-yl)-2-(3,3,3-trifluoropropane-sulfonyl) acetamide], 3 nM. The same measure, in the same setting: to `COC(=O)Nc1ccc(-c2cc3sc(C(C(=O)NCC(=O)NC4CC4)S(=O)(=O)N4CCOCC4)nc3cc2F)cc1F` (centres unmarked) [Example 488, methyl N-{4-[2-({[(cyclopropyl-carbamoyl)methyl]carbamoyl} (morpholine-4-sulfonyl)methyl)-5-fluoro-1,3-benzothiazol-6-yl]-2-fluorophenyl} carbamate] belongs 13 nM; to `O=C(CNC(=O)C(c1nc2cc(F)c(-c3cncnc3)cc2s1)S(=O)(=O)c1ccc(F)c(F)c1)NC1CC1` (centres unmarked) [Example 445, N-[(cyclopropyl-carbamoyl)methyl]-2-(3,4-difluorobenzene-sulfonyl)-2-[5-fluoro-6-(pyrimidin-5-yl)-1,3-benzothiazol-2-yl]acetamide], 59 nM. `COCCS(=O)(=O)C(C(=O)NCC(=O)NC1CC1)c1nc2cc(-c3cncc(OC)c3)ccc2s1` (centres unmarked) [Example 64, N-[(cyclopropyl-carbamoyl)methyl]-2-(2-methoxyethane-sulfonyl)-2-[5-(5-methoxypyridin-3-yl)-1,3-benzothiazol-2-yl]acetamide] gave an IC50 of 11 nM. The same measure, in the same setting: to `COCCS(=O)(=O)C(C(=O)NCC(=O)NC1CC1)c1nc2cc(F)c(-c3ccc(-n4ncc(C#N)c4N)cc3)cc2s1` (centres unmarked) [Example 585, 2-{6-[4-(5-amino-4-cyano-1H-pyrazol-1-yl)phenyl]-5-fluoro-1,3-benzothiazol-2-yl}-N-[(cyclopropyl-carbamoyl)methyl]-2-(2-methoxyethane-sulfonyl)acetamide] belongs 1 nM; to `O=C(CNC(=O)C(c1nc2cc(F)c(-c3ccc(-n4cnnn4)cc3)cc2s1)S(=O)(=O)CCC(F)(F)F)NC1CC1` (centres unmarked) [Example 142, N-[(cyclopropyl-carbamoyl)methyl]-2-{5-fluoro-6-[4-(1H-1,2,3,4-tetrazol-1-yl)phenyl]-1,3-benzothiazol-2-yl}-2-(3,3,3-trifluoropropane-sulfonyl) acetamide], 5 nM; to `CS(=O)(=O)C(C(=O)NCC(=O)NC1CC1)c1nc2cc(F)c(-c3cncc(F)c3)cc2s1` (centres unmarked) [Example 323, N-[(cyclopropyl-carbamoyl)methyl]-2-[5-fluoro-6-(5-fluoropyridin-3-yl)-1,3-benzothiazol-2-yl]-2-methanesulfonyl-acetamide], 23 nM. The same measure, in the same setting: to `COCCS(=O)(=O)C(C(=O)NCC(=O)NC1CC1)c1nc2cc(F)c(-c3ccc(C(=O)NCCC#N)cc3)cc2s1` (centres unmarked) [Example 42, N-(2-cyanoethyl)-4-[2-({[(cyclopropyl-carbamoyl)methyl]carbamoyl}(2-methoxyethane-sulfonyl)methyl)-5-fluoro-1,3-benzothiazol-6-yl] benzamide] belongs 7 nM. The same measure, in the same setting: the result for `COCCOC(=O)Nc1ccc(-c2cc3sc(C(C(=O)NCC(=O)NC4CC4)S(C)(=O)=O)nc3cc2F)cn1` (centres unmarked) [Example 36, 2-methoxyethyl N-{5-[2-({[(cyclopropyl-carbamoyl)methyl]carbamoyl} (methanesulfonyl)methyl)-5-fluoro-1,3-benzothiazol-6-yl]pyridin-2-yl}carbamate] reads 11 nM; that for “propan-2-yl N-{4- [2-({[(cyclopropyl- carbamoyl)methyl] carbamoyl}(2- methoxyethane- sulfonyl)methyl)- 5-fluoro-1,3- benzothiazol- 6-yl]phenyl} carbamate [Example 540]”, 2 nM.

`COCCS(=O)(=O)C(C(=O)NCC(=O)NC1CC1)c1nc2cc(-c3cccc(C(=O)N4CCC(F)(F)C4)c3)ccc2s1` (centres unmarked) [Example 396, N-[(cyclopropyl-carbamoyl)methyl]-2-{5-[3-(3,3-difluoro-pyrrolidine-1-carbonyl)phenyl]-1,3-benzothiazol-2-yl}-2-(2-methoxyethane-sulfonyl)acetamide] registered an IC50 of 8 nM. On the same count and under the same terms, the result for `Cc1cc2nc(C(C(=O)NCC(=O)NC3CC3)S(=O)(=O)C(C)C)sc2cc1-c1ccc(C(F)(F)F)nc1` (centres unmarked) [Example 209, N-[(cyclopropyl-carbamoyl)methyl]-2-{5-methyl-6-[6-(trifluoromethyl)pyridin-3-yl]-1,3-benzothiazol-2-yl}-2-(propane-2-sulfonyl) acetamide] reads 11 nM. Still for that read-out and setting: to `CN(C)S(=O)(=O)C(C(=O)NCC(=O)NC1CC1)c1nc2c(F)cc(-c3ccc(-c4nnn[nH]4)cc3)cc2s1` (centres unmarked) [Example 504, N-[(cyclopropyl-carbamoyl)methyl]-2-(dimethyl-sulfamoyl)-2-{4-fluoro-6-[4-(1H-1,2,3,4-tetrazol-5-yl)phenyl]-1,3-benzothiazol-2-yl}acetamide] belongs 10 nM; to `CS(=O)(=O)C(C(=O)NCC(=O)NC1CC1)c1nc2cc(F)c(-c3ccc4c(c3)CC(=O)N4)cc2s1` (centres unmarked) [Example 370, N-[(cyclopropyl-carbamoyl)methyl]-2-[5-fluoro-6-(2-oxo-2,3-dihydro-1H-indol-5-yl)-1,3-benzothiazol-2-yl]-2-methanesulfonyl-acetamide], 5 nM; to `Cn1ccc(-c2cc(F)c3nc(C(C(=O)NCC(=O)NC4CC4)S(=O)(=O)c4ccc(F)cc4)sc3c2)cc1=O` (centres unmarked) [Example 473, N-[(cyclopropyl-carbamoyl)methyl]-2-[4-fluoro-6-(1-methyl-2-oxo-1,2-dihydropyridin-4-yl)-1,3-benzothiazol-2-yl]-2-(4-fluorobenzene-sulfonyl)acetamide], 77 nM.

The same experiment, now with this note: EL from conditioned media of HT-1080 cells; 30 min preincubation at 37° C.
Take `COCCS(=O)(=O)C(C(=O)NCC(=O)NC1CC1)c1nc2cc(F)c(-c3ccc(NC(=O)OCC4CC4)cc3)cc2s1` (centres unmarked) [Example 525, Cyclopropylmethyl N-{4-[2-({[(cyclopropylcarbamoyl)methyl]carbamoyl}(2-methoxyethanesulfonyl)methyl)-5-fluoro-1,3-benzothiazol-6-yl]phenyl}carbamate]: the IC50 is 0.5 nM.
